These results are taken from patent US9643946B2, “Tricyclic compound and use thereof” (SK CHEMICALS CO., LTD., priority 2013, dated 2017).

For one test, the system named is male ZFDM rats. The test is described as follows: Hypoglycemic rate after oral glucose loading in rats. It counts as in vivo, rat. Conditions: oral 0.1 to 30 mg/kg one hour before glucose loading (1.5 g/kg), blood glucose AUC 0 to 120 minutes versus control. On the procedure:
Measurement of Hypoglycemic Rate in Rats
An effect of the compound according to one exemplary embodiment of the present invention on blood glucose inhibition after glucose loading was examined in male ZFDM rats (Japan SLC, Inc.).
Specifically, male ZFDM rats (7 week-old) pre-fed for a week were fasted overnight, and used as an animal to be tested. A test compound was prepared into a 0.5% methylcellulose suspension, which was orally administered to rats at a dose of 0.1 to 30 mg/kg before an hour of glucose loading (1.5 g/kg). As the control, 0.5% methylcellulose was administered. After the glucose administration, blood was drawn from the rats' tails after 0, 15, 30, 60 and 120 minutes to measure a blood glucose level. The area under the curve (AUC) for compound treatment was calculated using a blood glucose change profile from t=0 to 120 minutes, and a hypoglycemic rate (%) for the control was calculated.

In another test the target is human GPR40 protein (Homo sapiens, UniProt O14842). The test is described as follows: GPR40 agonist binding inhibition (displacement of 3H-labeled propanoic acid radioligand). Conditions: membrane protein including human GPR40, 3H-labeled propanoic acid radioligand, 25° C., 2 hours; read-out: Half maximal inhibitory concentration. As to the method:
Measurement of 50% Inhibitory Concentration (ID50) for GPR40 Agonist Binding
To examine the efficacy of the compounds according to one exemplary embodiment of the present invention in modulating GPR40, the half maximal inhibitory concentrations (IC50) of the compounds according to one exemplary embodiment of the present invention were measured by Microbeta2™ (PerkinElmer Inc.) using a change in radiation dose emitted from ^3H-labeled propanoic acid (i.e., 3-(4-((2,6′-dimethyl-6-((4-(^3H))-phenylmethoxy)biphenyl-3-yl)methoxy)phenyl)propanoic acid), which is a radioactive isotope which binds to a human GPR40 protein, as an indicator.
Specifically, a test compound was prepared by serial dilution with DMSO, and 100 μL of a binding buffer (including 25 mM HEPES (pH 7.5), 5 mM MgCl2, 100 mM NaCl, and 0.1% free fatty acid BSA; Sigma-Aldrich Corp.) was put into each well of a 96-well transparent plate. Thereafter, each of the diluted compound, propanoic acid which was prepared by dissolving propanoic acid in DMSO to a concentration of 500 mM and not labeled with a radioactive isotope, and DMSO was dispensed at 5 μL per well. ^3H-labeled propanoic acid was dissolved in a binding buffer at a concentration of 1 nM and dispensed at 50 μL into the corresponding wells, and a membrane protein including a human GPR40 protein was dissolved in a binding buffer at a concentration of 20 μg/well and dispensed at 100 μL, into the corresponding wells.
After the dispensation was completed, the plate was incubated at a temperature of 25° C. and a rotary speed of 230 rpm for 2 hours while shaking. A human GPR40 complex was transferred to Filtermat A (PerkinElmer Inc.) using a cell harvester (PerkinElmer Inc.), washed 10 times with 50 mM tris-HCl, dried, and then scintillated using Meltilex (PerkinElmer Inc.). Thereafter, an emitted radiation dose was measured using Microbeta2™. The radiation doses emitted from the complex in the well containing 10 mM unlabeled propanoic acid and the complex in the well containing DMSO alone were set as 0% and 100%, respectively. Thus, a change curve for each of the radiation doses was plotted to calculate the half maximal inhibitory concentration of the test compound.
Background: In a radioligand displacement assay an active substance lowers the binding of a labelled ligand.

Sequence of human GPR40 protein (O14842 whole entry): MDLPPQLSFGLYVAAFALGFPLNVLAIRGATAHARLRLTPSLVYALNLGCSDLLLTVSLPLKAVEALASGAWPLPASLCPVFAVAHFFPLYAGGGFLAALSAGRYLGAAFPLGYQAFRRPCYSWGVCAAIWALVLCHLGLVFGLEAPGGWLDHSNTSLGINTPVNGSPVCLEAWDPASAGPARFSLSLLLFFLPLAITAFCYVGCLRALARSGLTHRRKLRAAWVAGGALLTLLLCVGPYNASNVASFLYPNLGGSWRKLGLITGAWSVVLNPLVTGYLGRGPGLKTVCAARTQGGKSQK

As for `CS(=O)(=O)CCCOc1ccc2c(c1)CCCc1ccc(CNc3ccc([C@H]4C[C@@H]4C(=O)O)cc3)cc1-2` [Example 6, (1S,2S)-2-(4-(((9-(3-(methylsulfonyl)propoxy)-6,7-dihydro-5H-dibenzo[a,c][7]annulen-2-yl)methyl)amino)phenyl)cyclopropanecarboxylic acid], the Hypoglycemic rate in the test with male ZFDM rats came out at 18.0%. For the same compound, the IC50 on human GPR40 protein was determined as 116 nM.

Turning to `O=C(O)[C@H]1C[C@@H]1c1ccc(NCc2ccc3c(c2)-c2ccc(OCC4CCS(=O)(=O)CC4)cc2CCC3)cc1` [Example 78, (1S,2S)-2-(4-(((9-((1,1-dioxidotetrahydro-2H-thiopyran-4-yl)methoxy)-6,7-dihydro-5H-dibenzo[a,c][7]annulen-2-yl)methyl)amino)phenyl)cyclopropanecarboxylic acid], the Hypoglycemic rate in the test on male ZFDM rats came to 27.4%.
